# Where “and” joins values, the source holds several entries; their conditions need not be identical. Identical values can stand only once.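 Values below derive from 48-hour exposures of cells grown in 96-well plates, with endpoints linearly interpolated between the two concentrations bracketing the appropriate inhibition level. GI50 is the concentration that inhibits growth by half. TGI marks complete inhibition of growth.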
# Columns and labels:
# Experiment in all cases: inhibition of tumour cell growth, NCI panel, 48 h
# OVCAR-4 ovarian = tested on: OVCAR-4 ovarian
# MDA-MB-231 breast = tested on: MDA-MB-231 breast
# COLO 205 colon = tested on: COLO 205 colon
# KM12 colon = tested on: KM12 colon
# EKVX NSCLC = tested on: EKVX NSCLC
# SK-OV-3 ovarian = tested on: SK-OV-3 ovarian
# HL-60(TB) leukemia = tested on: HL-60(TB) leukemia
# HOP-92 NSCLC = tested on: HOP-92 NSCLC
# MOLT-4 leukemia = tested on: MOLT-4 leukemia
# SF-268 CNS = tested on: SF-268 CNS
Compound,GI50 (OVCAR-4 ovarian),TGI (OVCAR-4 ovarian),GI50 (MDA-MB-231 breast),TGI (MDA-MB-231 breast),GI50 (COLO 205 colon),TGI (COLO 205 colon),GI50 (KM12 colon),TGI (KM12 colon),GI50 (EKVX NSCLC),TGI (EKVX NSCLC),GI50 (SK-OV-3 ovarian),TGI (SK-OV-3 ovarian),GI50 (HL-60(TB) leukemia),TGI (HL-60(TB) leukemia),GI50 (HOP-92 NSCLC),TGI (HOP-92 NSCLC),GI50 (MOLT-4 leukemia),TGI (MOLT-4 leukemia),GI50 (SF-268 CNS),TGI (SF-268 CNS)
Cc1ccc(NC(=O)c2ccoc2)cc1-c1ccc(C(=O)NCC2CC2)cc1,> 18.8 µM,> 25 µM,> 22.6 µM,> 25 µM,> 25 µM,> 25 µM,> 25 µM,> 25 µM,> 13.5 µM,> 25 µM,> 25 µM,> 25 µM,> 20.4 µM,> 25 µM,8.76 µM,> 25 µM,> 25 µM,> 25 µM,> 25 µM,> 25 µM
Nc1nc(N)c2cc(S(=O)(=O)c3cccc(C(F)(F)F)c3)ccc2n1,5.71 µM,> 100 µM,9.75 µM,> 100 µM,,,,,3.32 µM,> 100 µM,14.8 µM,> 100 µM,,,3.56 µM,38 µM,4.32 µM,> 100 µM,4.57 µM,> 100 µM
CCCCCOC(=O)c1c(C)[nH]c(/C=C2\N=C(c3ccc[nH]3)C=C2OC)c1C,0.0559 µM,2.39 µM,< 0.0162 µM,0.216 µM,0.0331 µM,1.04 µM,0.0301 µM,1.54 µM,,,0.209 µM,2.38 µM,0.0263 µM,0.281 µM,0.0214 µM,0.116 µM,0.0265 µM,1.43 µM,0.0302 µM,1.87 µM
CN1CCN(c2ccc3nc(-c4[nH]ncc4Nc4ncnc5[nH]ccc45)[nH]c3c2)CC1,0.343 µM,2.13 µM,0.184 µM,0.801 µM,0.147 µM,0.695 µM,0.517 µM,11.6 µM,0.34 µM,14.2 µM,0.371 µM,12.7 µM,0.285 µM,0.686 µM,0.149 µM,0.535 µM,0.429 µM,14.4 µM,0.25 µM,0.803 µM
CCOc1cc(/C=C/C(=O)CC(=O)/C=C/c2ccc(OC(=O)CNc3nc4ccc(OC)cc4s3)c(OCC)c2)ccc1OC(=O)CNc1nc2ccc(OC)cc2s1,13.6 µM,68.5 µM,13.8 µM,60 µM,14 µM,29.3 µM,2.96 µM,12.1 µM,3.48 µM,11.7 µM,9.89 µM,53 µM,2.77 µM,15.2 µM,18 µM,56.3 µM,3.14 µM,11.1 µM,3.12 µM,25.8 µM
CN1CCC2(CC1)C(=O)Nc1cc(NC(=O)c3ccc4c(c3)C[C@@H]3C(C)(C)[C@H](O)[C@H](F)C[C@@]3(C)O4)ccc12,25.9 µM,> 100 µM,3.36 µM,21.1 µM,1.84 µM,7.36 µM,1.38 µM,17.7 µM,29.8 µM,> 100 µM,1.71 µM,27.3 µM,0.0842 µM,13.7 µM,1.97 µM,31.1 µM,0.0342 µM,1.5 µM,6.68 µM,31.9 µM
C/C(=C1\C(=O)Nc2ccccc21)c1cccc(/C(C)=C2/C(=O)Nc3ccccc32)n1,43 µM,> 100 µM,11.5 µM,74.7 µM,7.32 µM,> 100 µM,,,0.692 µM,5.4 µM,26.2 µM,> 100 µM,16 µM,> 100 µM,15.7 µM,85.3 µM,6.95 µM,> 100 µM,7.42 µM,71.8 µM
CCOC(=O)c1sc2nc(=S)[nH]c(NC(N)=S)c2c1C,35.4 µM,> 100 µM,12.1 µM,31.9 µM,18.6 µM,48.4 µM,23.5 µM,52.7 µM,2.49 µM,30.6 µM,20.6 µM,61.3 µM,51.2 µM,> 100 µM,4.58 µM,37.5 µM,30.1 µM,> 100 µM,17.8 µM,42.7 µM
O=C(Nc1ccc(Nc2ccc3c(c2)C(=O)c2ccccc2C3=O)c2c1C(=O)c1ccccc1C2=O)c1ccccc1,,> 100 µM,,> 100 µM,,> 100 µM,,> 100 µM,,> 100 µM,,> 100 µM,,> 100 µM,,> 100 µM,,> 69.3 µM,,> 100 µM
O=C(O)C1CCCN1 (configuration not stated),,> 100 µM,,> 100 µM,,> 100 µM,,> 100 µM,,> 100 µM,,> 100 µM,,> 100 µM,,> 100 µM,,> 100 µM,,> 100 µM
O=c1[nH]c(=O)n(Cc2ccc(C34CC5CC(CC(C5)C3)C4)c(O)c2)cc1F,13.8 µM,30.2 µM,14.3 µM,28.9 µM,17.2 µM,37.9 µM,12.1 µM,28.5 µM,16.4 µM,35.7 µM,21 µM,55.7 µM,3.05 µM,16 µM,13.5 µM,26.4 µM,12.4 µM,32.4 µM,18.5 µM,65.6 µM
O=c1oc2ccccc2cc1P(=O)(O)O,,> 100 µM,,> 100 µM,,> 100 µM,,,,> 100 µM,,,,> 100 µM,,> 100 µM,,> 100 µM,,> 100 µM
CN(C)CCN1C(=O)c2cccc3cc(N)cc(c23)C1=O,,33.7 µM and 18.3 µM,8.01 µM,34.8 µM and 9.64 µM,2.23 µM,14.7 µM and 7.19 µM,3.32 µM,26.5 µM and 25.5 µM,4.22 µM,39.7 µM and 15.3 µM,,38.4 µM and 17.4 µM,5.29 µM,59.2 µM and 16.2 µM,2.28 µM,15.4 µM and 13.1 µM,1.88 µM,> 100 µM and 13.5 µM,3.83 µM,25.6 µM and 28.9 µM
Clc1ccc(NCNC2Nc3ccccc3N2)cc1Cl,,,,> 100 µM,,> 100 µM,,92.5 µM,,> 100 µM,,> 100 µM,,> 100 µM,,> 100 µM,,> 100 µM,,> 100 µM
Clc1ccc2c(NC3CCC(NC4CCCCC4)CC3)ccnc2c1 (configuration not stated),6.48 µM,41 µM,5.94 µM,23.8 µM,1.65 µM,3.2 µM,5.34 µM,18.9 µM,4.55 µM,43 µM,15.9 µM,46.2 µM,,,1.2 µM,9.74 µM,,,10.5 µM,25.6 µM
CCCCCCCCCCCC(c1ccccc1)[N+](C)(C)C (configuration not stated),1.13 µM,4.05 µM,1.68 µM,4.25 µM,0.825 µM,2.2 µM,0.511 µM,1.78 µM,1.45 µM,4.63 µM,1.86 µM,6.09 µM,0.291 µM,1.47 µM,1.06 µM,2.86 µM,1.36 µM,4.02 µM,1.26 µM,2.61 µM
Cc1ccc(/C=C/C(=O)c2ccc(F)cc2)s1,11.7 µM,29.8 µM,10.2 µM,24 µM,6.07 µM,19.9 µM,2.75 µM,7.52 µM,5.83 µM,20.3 µM,15.4 µM,37.9 µM,2.26 µM,7.22 µM,1.6 µM,3.4 µM,3.39 µM,> 100 µM,2.19 µM,4.91 µM
C=C(C)[C@@H]1CC[C@]2(C(=O)OC)CC[C@]3(C)[C@H](CC[C@@H]4[C@@](C)(CCc5nn[nH]n5)[C@H](C(=C)C)CC[C@]43C)[C@@H]12,14.7 µM,48.1 µM,15.5 µM,30.8 µM,19.7 µM,47.9 µM,10.7 µM,25 µM,19.2 µM,61 µM,25.6 µM,82.8 µM,19 µM,62.3 µM,8.08 µM,22.3 µM,11.7 µM,40.8 µM,15.7 µM,34.9 µM
CC(=O)Nc1ccc(CC[C@H]2CCC/C=C/[C@@H]3C[C@H](O)C[C@H]3[C@H](O)/C=C/C(=O)O2)cc1,0.105 µM,,0.0826 µM,0.252 µM,0.139 µM,0.283 µM,0.0983 µM,0.315 µM,0.191 µM,4.33 µM,0.0667 µM,> 100 µM,0.337 µM,3.95 µM,0.217 µM,0.791 µM,0.345 µM,2.82 µM,0.0594 µM,> 100 µM
CC(C)CC(NC(=O)C(O)C(N)Cc1ccccc1)C(=O)O (configuration not stated),,> 100 µM,,> 100 µM,,> 100 µM,,> 100 µM,,> 100 µM,,> 100 µM,,> 100 µM,,> 100 µM,,> 100 µM,,> 100 µM
COc1cc2c(cc1OCCCCCOc1ccc(-c3nc4ccccc4s3)cc1)N=C[C@@H]1CCCN1C2=O,3.02 µM,> 76.5 µM,1.02 µM,4.2 µM,1.32 µM,6.53 µM,4.38 µM,22.9 µM,5.66 µM,> 21.2 µM,8.97 µM,> 25.6 µM,1.35 µM,8.72 µM,0.886 µM,3.62 µM,3.5 µM,20 µM,5.62 µM,31.6 µM
O=C(O)c1c2c(c(O)c3c1CN(C1CCCCC1)CO3)OCN(C1CCCCC1)C2,,> 100 µM,,> 100 µM,,> 100 µM,,> 100 µM,,> 100 µM,,> 100 µM,,,,> 100 µM,,40.1 µM,,> 100 µM
C=C1C(=O)O[C@@H]2C[C@@]3(C)CCC[C@H](C)C3=C[C@H]12 (tested in a mixture with another compound),,6.45 µM,,6.72 µM,,3.18 µM,,8.89 µM,,15 µM,,22.7 µM,,,,3.48 µM,,3.73 µM,,7.2 µM
Cc1cc[c]([Sb]2[O]C(CO)C(C(O)C(O)C(=O)O)[O]2)cc1 (configuration not stated),> 100 µM,> 100 µM,78 µM,> 100 µM,,,46.7 µM,> 100 µM,41 µM,> 100 µM,,,,,> 100 µM,> 100 µM,78.7 µM,> 100 µM,> 100 µM,> 100 µM
O=c1cc(-c2cccc(Cl)c2)[nH]c2cc3c(cc12)OCO3,43 µM,> 100 µM,,11.5 µM,,10.4 µM,,28.1 µM,,,,3.05 µM,0.263 µM,7.5 µM and 1.39 µM,,21.8 µM,0.654 µM,75 µM and > 100 µM,,
C[C@]12CC[C@H]3[C@@H](CCC4=CC(=O)CC[C@@]43C)[C@]1(O)CC[C@]2(O)C(=O)CO,,> 100 µM,,> 100 µM,,> 100 µM,,> 100 µM,,> 100 µM,,> 100 µM,,> 100 µM,,,,> 100 µM,,> 100 µM
COc1cc(-c2csc(NC(=O)Nc3ccc(Cl)cc3)n2)cc(OC)c1OC,2.89 µM,> 49.6 µM,2.99 µM,12.7 µM,2.52 µM,7.05 µM,2.57 µM,7.9 µM,2.77 µM,> 64.5 µM,3 µM,8.91 µM,2.79 µM,6.83 µM,2.12 µM,6.85 µM,,,3.28 µM,20.8 µM
Cc1cc2c(cc1Cl)SC(=Nc1ccc(Cl)cc1)N(S(=O)(=O)c1ccc(Br)s1)S2(=O)=O,18.4 µM,66.3 µM,12.9 µM,38.9 µM,17.8 µM,> 100 µM,16.2 µM,37.7 µM,16.8 µM,36.3 µM,34.5 µM,97.1 µM,22.4 µM,46.8 µM,12.1 µM,46.1 µM,,,32.2 µM,> 100 µM
[Cu].c1ccc2c(c1)C1=NC2=NC2=NC(=NC3=NC(=NC4=NC(=N1)c1ccccc14)c1ccccc13)c1ccccc12,> 100 µM,> 100 µM,> 100 µM,> 100 µM,,,> 100 µM,> 100 µM,> 100 µM,> 100 µM,> 100 µM,> 100 µM,,,> 100 µM,> 100 µM,,,> 100 µM,> 100 µM

# Source: PubChem BioAssay (NCI)
